{
  "source": "paper PMC9061999",
  "about": "“Application of the Adverse Outcome Pathway Concept to In Vitro Nephrotoxicity Assessment: Kidney Injury due to Receptor-Mediated Endocytosis and Lysosomal Overload as a Case Study” (Frontiers in Toxicology, 2022)",
  "system": "RPTEC/TERT1 cells",
  "format": "cell-based, human",
  "procedure": "For high content imaging, NRK-52E and RPTEC/TERT1 cells were cultivated in µ-clear half well area microtiter plates (Greiner) according to the protocol described for the cytotoxicity assay with slight modification. Briefly, NRK-52E cells were seeded at 5,000 cells in 100 µL growth medium per well and were incubated under standard growth conditions for 48 h prior to treatment. RPTEC/TERT1 cells were seeded at 15,000 cells in 100 µL growth medium per well and incubated under standard growth conditions for 7–8 days, until cells reached confluence and started to differentiate. This was indicated by the formation of three-dimensional structures referred to as domes which were identified by regular microscopic inspection of the plates. Only differentiated cell cultures with detectable domes were assayed. Cells of both cell lines were treated with serially diluted Polymyxin B sulfate (concentration range 7.8 to 2,000 µM) for 1, 2, 4, 6, or up to 24 h. The assay was carried out on three biological replicates defined as three different non-consecutive passages of the cell culture. Each biological replicate at each treatment concentration was assayed in triplicate wells per plate.\nFollowing treatment, cells were stained with two different combinations of fluorescent dyes: NRK-52E cells with 50 pg/μL LysoView™ 633 (Biotium) and 1 µM SYTO 16 (Thermo Scientific), respectively, for lysosomes and nuclei; RPTEC/TERT1 cells with 10 nM LysoTracker™ Red (Thermo Scientific) and 10 ng/μL Hoechst 33342 (Merck-Sigma Aldrich), respectively, for lysosomes and nuclei. For each cell line a staining solution was obtained by mixing the lysosomes and nuclei dyes in cell culture medium at the concentrations indicated above. The cells were stained by replenishing the medium for 100 µL of staining solution per well followed by incubation at 37°C and 5% CO2 for 30 min before imaging.\nImages were acquired with a fully automated fluorescence confocal Opera™ QEHS system (PerkinElmer, United Kingdom) using a ×40 air UPlanApo objective (Olympus) with 0.85 numerical aperture. NRK-52E cells stained with the dyes SYTO 16 and LysoView™633 were imaged with the laser lines 488 and 635 nm, using a 488/561/635 nm primary dichroic mirror, a 510 nm long pass (LP) detection dichroic mirror, a 540/75 nm band pass (BP) emission filter for SYTO 16 and a 690/50 nm BP emission filter for LysoView™ 633. RPTEC/TERT1 cells stained with the dyes Hoechst 33342 and LysoTracker™Red were imaged with the laser lines 405 and 561 nm, using a 405/561/635 nm primary dichroic mirror, a 580 nm LP detection dichroic mirror, a 450/50 nm BP emission filter for Hoechst 33342 and a 600/40 nm BP emission filter for LysoTracker™Red. To prevent cross talk of the fluorescent signals, each dye was imaged consecutively using the combination of lasers and filters described above. The settings for laser power, exposure time and focal height were kept constant for each cell line across all the experiments. For NRK-52E cells images were acquired at 25 randomly distributed positions in a well at a single focal plane whereas for RPTEC/TERT1 cells due to the development of dome structures images were acquired at 9 random positions at three focal planes each 1 μm apart.\nThe images were analyzed by custom-made image analysis scripts either with the imaging analysis software Acapella (version 2.8 PerkinElmer) or Columbus (version 2.4.0 PerkinElmer). The scripts included modules for the identification and counting of the cell nuclei to extrapolate the number of cells per well, for definition of a cytoplasm surrounding the nucleus, for identification and counting of the lysosome vesicles within the cytoplasm. Additional cellular parameters included the nuclei size, intensity, the cell size (cell area), the lysosome size (lysosome area), intensity and the number of lysosomes normalized by the cell area to compensate for difference in size of the cells.",
  "key": {"[1]": {"conditions": "RPTEC/TERT1, 250 µM, high content imaging"}},
  "note": "Where two headings read alike, the source gives them in different places.",
  "data": [
    {"substance": "Colistin", "values": [
      {"measurement": "Effect on lysosomal endpoints in high content screening", "setting": "RPTEC/TERT1, 24 h, 7.8 to 2000 µM (smaller range for CdCl2 and 4-aminophenol), triplicate experiments, Figure S1", "value": "most prominent effects on lysosomal endpoints"}
    ]},
    {"substance": "Polymyxin B", "values": [
      {"measurement": "Treatment time at which nuclear changes were first recorded", "setting": "RPTEC/TERT1, 125 µM, high content imaging (nuclei area, nuclei intensity)", "value": 4, "unit": "h"},
      {"measurement": "Treatment time at which lysosomal effects were measurable", "setting": "RPTEC/TERT1, 125 µM, high content imaging, three biological replicates in triplicate wells", "value": 1, "unit": "h"},
      {"measurement": "Treatment time at which lysosomal effects were measurable", "setting": "[1]", "value": 1, "unit": "h"},
      {"measurement": "Treatment time at which nuclear changes were first recorded", "setting": "[1]", "value": 2, "unit": "h"},
      {"measurement": "Cytotoxicity in high content screening", "setting": "RPTEC/TERT1, 24 h treatment, Figure S1", "value": "severe cytotoxicity"}
    ]}
  ]
}
